Where a name gives a salt, the structure may show the parent alone.
Experiments:
[1] = Water sorption analysis (0 % RH to 95 % RH, 25°C); format: physicochemical; details: for release of crystal water at 0 % RH: nitrogen flow rate 200 ml/min; for RH at which water sorption started: two 11-step circles from 0 % RH to 95 % RH
Experimental: An amount of 20 mg of zipasidone hydrogensulfate dihydrate was exposed to a watersorption analysis (Surface Measurement Systems Ltd., London, UK; two complete 11-step circles from 0 % RH to 95 % RH at the temperature 25°C and nitrogen flow rate 200 ml/min; minimal retention time at the step when dm/dt < 0.002% was 10 minutes and maximal 360 minutes) and compared to the same test of Ziprasidone hydrochloride monohydrate.

[2] = Solubility in water (pH 6.8) + 2 % SDS; format: physicochemical; details: water + 2 % SDS, aqueous with cosolvent or surfactant or cyclodextrin; water (pH 6.8) + 2 % SDS at room temperature

Row | Structure (SMILES) | release of crystal water at 0 % RH [1] | RH at which water sorption started [1] [% RH] | stability to hydratation ([1]; compared with Ziprasidone hydrochloride salt) | solubility [2] [µg/mL]
1 | O=C1Cc2cc(CCN3CCN(c4nsc5ccccc45)CC3)c(Cl)cc2N1 [Ziprasidone hydrochloride monohydrate, reference compound] | release crystal water | 30 | – | –
2 | O.O.O=C1Cc2cc(CCN3CCN(c4nsc5ccccc45)CC3)c(Cl)cc2N1.O=S(=O)(O)O [Ziprasidone hydrogensulfate dihydrate, 5-[2-[4-(1,2-benzisothiazol-3-yl) -1-piperazinyl]ethyl] -6-chloro-1,3-dihydro-2H-indol-2-one hydrogensulfate dihydrate] | does not release crystal water | 50 | more stable to hydratation | 360

From patent EP2046786B1, “POLYMORPHIC FORMS OF ZIPRASIDONE SULFATES” (KRKA, priority 2006, dated 2008)
